Measured values: patent publication US8729113B2 (Hoffmann-La Roche Inc., priority 2008, dated 2014)

Target: TAAR1 (Mus musculus (Mouse), UniProt Q923Y8)
Assay: Radioligand binding assay on TAAR1 (membranes of stably transfected HEK293 cells)
Settings: competition with [3H]-rac-2-(1,2,3,4-tetrahydro-1-naphthyl)-2-imidazoline, 4° C., 30 min
Method: For the construction of expression plasmids the coding sequences of human, rat and mouse TAAR 1 were amplified from genomic DNA essentially as described by Lindemann et al.. The Expand High Fidelity PCR System (Roche Diagnostics) was used with 1.5 mM Mg^2+ and purified PCR products were cloned into pCR2.1—TOPO cloning vector (Invitrogen) following the instructions of the manufacturer. PCR products were subcloned into the pIRESneo2 vector (BD Clontech, Palo Alto, Calif.), and expression vectors were sequence verified before introduction in cell lines.
HEK293 cells (ATCC # CRL-1573) were cultured essentially as described Lindemann et al. (2005). For the generation of stably transfected cell lines HEK293 cells were transfected with the pIRESneo2 expression plasmids containing the TAAR coding sequences (described above) with Lipofectamine 2000 (Invitrogen) according to the instructions of the manufacturer, and 24 hrs post transfection the culture medium was supplemented with 1 mg/ml G418 (Sigma, Buchs, Switzerland). After a culture period of about 10 d clones were isolated, expanded and tested for responsiveness to trace amines (all compounds purchased from Sigma) with the cAMP Biotrak Enzyme immunoassay (EIA) System (Amersham) following the non-acetylation EIA procedure provided by the manufacturer. […] Membrane Preparation and Radioligand Binding
Cells at confluence were rinsed with ice-cold phosphate buffered saline without Ca^2+ and Mg^2+ containing 10 mM EDTA and pelleted by centrifugation at 1000 rpm for 5 min at 4° C. The pellet was then washed twice with ice-cold phosphate buffered saline and cell pellet was frozen immediately by immersion in liquid nitrogen and stored until use at −80° C. Cell pellet was then suspended in 20 ml HEPES-NaOH (20 mM), pH 7.4 containing 10 mM EDTA, and homogenized with a Polytron (PT 3000, Kinematica) at 10,000 rpm for 10 s. The homogenate was centrifuged at 48,000×g for 30 min at 4° C. and the pellet resuspended in 20 ml HEPES-NaOH (20 mM), pH 7.4 containing 0.1 mM EDTA (buffer A), and homogenized with a Polytron at 10,000 rpm for 10 s. The homogenate was then centrifuged at 48,000×g for 30 min at 4° C. and the pellet resuspended in 20 ml buffer A, and homogenized with a Polytron at 10,000 rpm for 10 s. Protein concentration was determined by the method of Pierce (Rockford, Ill.). The homogenate was then centrifuged at 48,000×g for 10 min at 4° C., resuspended in HEPES-NaOH (20 mM), pH 7.0 including MgCl2 (10 mM) and […] homogenized with a Polytron at 10,000 rpm for 10 s.
Binding assay was performed at 4° C. in a final volume of 1 ml, and with an incubation time of 30 min. The radioligand [^3H]-rac-2-(1,2,3,4-tetrahydro-1-naphthyl)-2-imidazoline was used at a concentration equal to the calculated Kd value of 60 nM to give a bound at around 0.1% of the total added radioligand concentration, and a specific binding which represented approximately 70-80% of the total binding. Non-specific binding was defined as the amount of [^3H]-rac-2-(1,2,3,4-tetrahydro-1-naphthyl)-2-imidazoline bound in the presence of the appropriate unlabelled ligand (10 μM). Competing ligands were tested in a wide range of concentrations […]. […] Each experiment was performed in duplicate. All incubations were terminated by rapid filtration through UniFilter-96 plates (Packard Instrument Company) and glass filter GF/C, pre-soaked for at least 2 h in polyethylenimine 0.3%, and using a Filtermate 96 Cell Harvester (Packard Instrument Company). The tubes and filters were then washed 3 times with 1 ml aliquots of cold buffer B. Filters were not dried and soaked in Ultima gold (45 μl/well, Packard Instrument Company) and bound radioactivity was counted by a TopCount Microplate Scintillation Counter (Packard Instrument Company).

Chain of TAAR1 (Q923Y8 whole entry): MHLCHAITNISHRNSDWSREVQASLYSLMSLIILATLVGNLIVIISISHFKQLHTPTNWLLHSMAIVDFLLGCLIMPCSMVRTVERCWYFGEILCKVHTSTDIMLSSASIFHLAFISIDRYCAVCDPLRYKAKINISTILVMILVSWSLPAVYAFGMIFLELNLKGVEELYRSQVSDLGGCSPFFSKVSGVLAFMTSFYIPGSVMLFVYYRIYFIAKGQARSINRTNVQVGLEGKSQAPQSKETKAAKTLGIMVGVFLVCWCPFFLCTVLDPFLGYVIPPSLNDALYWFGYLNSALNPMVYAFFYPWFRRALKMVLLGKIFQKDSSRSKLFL

SMILES	Ki
CC[C@@H](C[C@H]1COC(N)=N1)Oc1cccc(Cl)c1 [Example 112]	0.0012 µM
COc1ccc(OCC[C@H]2COC(N)=N2)cc1 [Example 59, (S)-4-[2-(4-Methoxy-phenoxy)-ethyl]-4,5-dihydro-oxazol-2-ylamine]	0.0076 µM
NC1=N[C@@H](CCOc2ccc(-c3ccc(F)cc3)cc2)CO1 [Example 48, (S)-4-[2-(4′-Fluoro-biphenyl-4-yloxy)-ethyl]-4,5-dihydro-oxazol-2-ylamine]	0.0016 µM
NC1=N[C@@H](CCOc2ccc(Cl)cc2)CO1 [Example 3, (S)-4-[2-(4-Chloro-phenoxy)-ethyl]-4,5-dihydro-oxazol-2-ylamine]	0.0005 µM
NC1=N[C@@H](CCC2(c3cc(F)cc(Cl)c3)CC2)CO1 [Example 143, (S)-4-{2-[1-(3-Chloro-5-fluoro-phenyl)-cyclopropyl]-ethyl}-4,5-dihydro-oxazol-2-ylamine]	0.0009 µM
NC1=N[C@@H](CCOc2cccc(Cl)c2)CO1 [Example 5, (S)-4-[2-(3-Chloro-phenoxy)-ethyl]-4,5-dihydro-oxazol-2-ylamine]	0.0003 µM
C[C@H](C[C@H]1COC(N)=N1)Oc1ccc(F)c(Cl)c1 [Example 85, (S)-4-[(R)-2-(3-Chloro-4-fluoro-phenoxy)-propyl]-4,5-dihydro-oxazol-2-ylamine]	0.0059 µM
CC[C@@H](C[C@H]1COC(N)=N1)Oc1ccc(Cl)c(F)c1 [Example 113, (S)-4-[(S)-2-(4-Chloro-3-fluoro-phenoxy)-butyl]-4,5-dihydro-oxazol-2-ylamine]	0.0037 µM
NC1=N[C@@H](CCOc2ccccc2Cl)CO1 [Example 6, (S)-4-[2-(2-Chloro-phenoxy)-ethyl]-4,5-dihydro-oxazol-2-ylamine]	0.0041 µM
NC1=N[C@@H](CCOc2ccc(Br)cc2)CO1 [Example 55, (S)-4-[2-(4-Bromo-phenoxy)-ethyl]-4,5-dihydro-oxazol-2-ylamine]	0.0025 µM
CC[C@@H](C[C@H]1COC(N)=N1)Oc1ccc(Cl)cc1Cl [Example 158, (S)-4-[(S)-2-(2,4-Dichloro-phenoxy)-butyl]-4,5-dihydro-oxazol-2-ylamine]	0.0011 µM
NC1=N[C@@H](CCOc2cc(F)cc(F)c2)CO1 [Example 130, (S)-4-[2-(3,5-Difluoro-phenoxy)-ethyl]-4,5-dihydro-oxazol-2-ylamine]	0.0007 µM
CC(C)(CC[C@H]1COC(N)=N1)c1ccc(F)cc1 [Example 25, (S)-4-[3-(4-Fluoro-phenyl)-3-methyl-butyl]-4,5-dihydro-oxazol-2-ylamine]	0.003 µM
NC1=N[C@@H](CCC2(c3ccc(Cl)cc3)CC2)CO1 [Example 30, (S)-4-{2-[1-(4-Chloro-phenyl)-cyclopropyl]-ethyl}-4,5-dihydro-oxazol-2-ylamine]	0.0004 µM
CC[C@@H](C[C@H]1COC(N)=N1)Oc1ccc(F)cc1F [Example 114, (S)-4-[(S)-2-(2,4-Difluoro-phenoxy)-butyl]-4,5-dihydro-oxazol-2-ylamine]	0.0019 µM
CC[C@H](OC[C@H]1COC(N)=N1)c1ccccc1 [Example 156, (S)-4-((S)-1-Phenyl-propoxymethyl)-4,5-dihydro-oxazol-2-ylamine]	0.0073 µM
C[C@@H](C[C@H]1COC(N)=N1)Oc1ccc(F)cc1F [Example 74, (S)-4-[(S)-2-(2,4-Difluoro-phenoxy)-propyl]-4,5-dihydro-oxazol-2-ylamine]	0.004 µM
NC1=N[C@@H](CCOc2ccc(Cl)c(Cl)c2)CO1 [Example 57, (S)-4-[2-(3,4-Dichloro-phenoxy)-ethyl]-4,5-dihydro-oxazol-2-ylamine]	0.0003 µM
CC[C@@H](C[C@H]1COC(N)=N1)Oc1ccc(C(F)(F)F)cc1 [Example 121, (S)-4-[(S)-2-(4-Trifluoromethyl-phenoxy)-butyl]-4,5-dihydro-oxazol-2-ylamine]	0.0038 µM

SMILES	Ki
C[C@@H](C[C@H]1COC(N)=N1)Oc1ccc(F)c(F)c1 [Example 69, (S)-4-[(S)-2-(3,4-Difluoro-phenoxy)-propyl]-4,5-dihydro-oxazol-2-ylamine]	0.008 µM
NC1=N[C@@H](CCSc2ccc(F)cc2)CO1 [Example 150, (S)-4-[2-(4-Fluoro-phenylsulfanyl)-ethyl]-4,5-dihydro-oxazol-2-ylamine]	0.0007 µM
CCC(CC[C@H]1COC(N)=N1)c1ccc(F)cc1 (stereo partly drawn) [Example 18, (4S)-4-[3-(4-Fluoro-phenyl)-pentyl]-4,5-dihydro-oxazol-2-ylamine]	0.0026 µM
C[C@H](CC[C@H]1COC(N)=N1)c1ccc(F)cc1 [Example 116, (S)-4-[(R)-3-(4-Fluoro-phenyl)-butyl]-4,5-dihydro-oxazol-2-ylamine]	0.0011 µM
C[C@H](C[C@H]1COC(N)=N1)Oc1cccc(Cl)c1 [Example 84, (S)-4-[(R)-2-(3-Chloro-phenoxy)-propyl]-4,5-dihydro-oxazol-2-ylamine]	0.0076 µM
CC[C@@H](C[C@H]1COC(N)=N1)Oc1ccc(F)cc1 [Example 117, (S)-4-[(S)-2-(4-Fluoro-phenoxy)-butyl]-4,5-dihydro-oxazol-2-ylamine]	0.0032 µM
CC[C@@H](C[C@H]1COC(N)=N1)Oc1cccc(OCc2ccccc2)c1 [Example 140, (S)-4-[(S)-2-(3-Benzyloxy-phenoxy)-butyl]-4,5-dihydro-oxazol-2-ylamine]	0.0009 µM
C[C@@H](C[C@H]1COC(N)=N1)Oc1cccc(Cl)c1 [Example 68, (S)-4-[(S)-2-(3-Chloro-phenoxy)-propyl]-4,5-dihydro-oxazol-2-ylamine]	0.0012 µM
NC1=N[C@@H](CCOc2ccc(F)cc2Cl)CO1 [Example 10, (S)-4-[2-(2-Chloro-4-fluoro-phenoxy)-ethyl]-4,5-dihydro-oxazol-2-ylamine]	0.0021 µM
CC[C@@H](C[C@H]1COC(N)=N1)Oc1ccc(Cl)c(Cl)c1 [Example 122, (S)-4-[(S)-2-(3,4-Dichloro-phenoxy)-butyl]-4,5-dihydro-oxazol-2-ylamine]	0.0007 µM
NC1=N[C@@H](CCOc2cccc(OCc3ccccc3)c2)CO1 [Example 34, (S)-4-[2-(3-Benzyloxy-phenoxy)-ethyl]-4,5-dihydro-oxazol-2-ylamine]	0.0008 µM
C[C@H](C[C@H]1COC(N)=N1)Oc1ccc(Cl)c(Cl)c1 [Example 96, (S)-4-[(R)-2-(3,4-Dichloro-phenoxy)-propyl]-4,5-dihydro-oxazol-2-ylamine]	0.0062 µM
NC1=N[C@@H](CCC2(c3cc(F)cc(F)c3)CC2)CO1 [Example 142, (S)-4-{2-[1-(3,5-Difluoro-phenyl)-cyclopropyl]-ethyl}-4,5-dihydro-oxazol-2-ylamine]	0.0013 µM
CC(OC[C@H]1COC(N)=N1)c1ccccc1 (stereo partly drawn) [Example 24, (4S)-4-(1-Phenyl-ethoxymethyl)-4,5-dihydro-oxazol-2-ylamine]	0.0084 µM
C[C@@H](C[C@H]1COC(N)=N1)Oc1ccccc1 [Example 81]	0.0064 µM
NC1=N[C@@H](CCC2(c3ccc(F)cc3F)CC2)CO1 [Example 89, (S)-4-{2-[1-(2,4-Difluoro-phenyl)-cyclopropyl]-ethyl}-4,5-dihydro-oxazol-2-ylamine]	0.0059 µM
NC1=N[C@@H](CCOc2ccc(C(F)(F)F)cc2)CO1 [Example 88, (S)-4-[2-(4-Trifluoromethyl-phenoxy)-ethyl]-4,5-dihydro-oxazol-2-ylamine]	0.0048 µM
CC(C)(CC[C@H]1COC(N)=N1)c1ccccc1 [Example 7, (S)-4-(3-Methyl-3-phenyl-butyl)-4,5-dihydro-oxazol-2-ylamine]	0.0032 µM
